From US20060013769A1, “Transdermal drug delivery formulations and method of determining optimal amounts of vasodilators therein” (priority 2004, published 2006)
One block for each compound: values may come before it.

How the values were obtained:
Assay type in all cases: in vivo
[1] = Topical ibuprofen vehicle with tocopherol nicotinate applied to rabbits, ibuprofen in plasma over three hours
Method: (§1) Test formulations containing 15% ibuprofen-sodium salt, 5% oleic acid, 10% menthol, 5% propylene glycol, 10% dimethylacetamide, 1% decylmethylsulfoxide, 1% u-care, varying amounts of tocopherol nicotinate in the range of 0-1%, and 52-53% deionized water were each blended in a beaker with a mechanical mixer and heated to 40° C. for 30 minutes until clear, then cooled to room temperature.
(§2) 150 mg of sodium salt-ibuprofen was formulated with a 1-gram dose of the above lipid-based vehicle formulations containing the increasing amounts of the vasodilator tocopherol nicotinate. The Ibuprofen vehicle was topically applied to rabbits and blood samples were taken over a three-hour period. Plasma was prepared and analyzed for the amount of ibuprofen present in the blood. The data represents the integrated value of ibuprofen concentration in the blood for the three hour time period for each concentration of tocopherol nicotinate.

[2] = Topical ibuprofen vehicle with papaverine applied to rabbits, ibuprofen in plasma over three hours
Method: as §1, with “papaverine ranging from” for “tocopherol nicotinate in the range of”
as §2, with “with” for “with a 1-gram dose of”, “formulatiosn” for “formulations”, “containing” for “containing the”, “papaverine.” for “tocopherol nicotinate.”

[3] = Topical ibuprofen vehicle with tolazoline applied to rabbits, ibuprofen in plasma over three hours
Method: as §1, with “tolazoline ranging from 0-0.1%,” for “tocopherol nicotinate in the range of 0-1%,”, “52.9-53%” for “52-53%”
as §2, with “with” for “with a 1-gram dose of”, “formulatiosn” for “formulations”, “containing” for “containing the”, “tolazoline.” for “tocopherol nicotinate.”

blood flow = test: Maximal blood flow stimulated by vasodilator, laser Doppler perfusion imager
Method: Maximal blood flow stimulated by the vasodilator tolazoline was measured using a laser Doppler perfusion imager.

integrated value of ibuprofen concentration in the blood (0-3 hr) ([1]; 0.00010% tocopherol nicotinate in vehicle): 3980 ng·h/mL
integrated value of ibuprofen concentration in the blood (0-3 hr) ([1]; 0.00025% tocopherol nicotinate in vehicle): 9480 ng·h/mL
integrated value of ibuprofen concentration in the blood (0-3 hr) ([1]; 0.00050% tocopherol nicotinate in vehicle): 3120 ng·h/mL
integrated value of ibuprofen concentration in the blood (0-3 hr) ([1]; 0.0010% tocopherol nicotinate in vehicle): 5080 ng·h/mL
integrated value of ibuprofen concentration in the blood (0-3 hr) ([1]; 0.0100% tocopherol nicotinate in vehicle): 5840 ng·h/mL
integrated value of ibuprofen concentration in the blood (0-3 hr) ([1]; 0.100% tocopherol nicotinate in vehicle): 4300 ng·h/mL
integrated value of ibuprofen concentration in the blood (0-3 hr) ([1]; 1.000% tocopherol nicotinate in vehicle): 4400 ng·h/mL
integrated value of ibuprofen concentration in the blood (0-3 hr) ([1]; Control (no tocopherol nicotinate), 150 mg sodium salt-ibuprofen in 1 g vehicle): 1030 ng·h/mL
integrated value of ibuprofen concentration in the blood (0-3 hr) ([2]; 0.00010% papaverine in vehicle): 5120 ng·h/mL
integrated value of ibuprofen concentration in the blood (0-3 hr) ([2]; 0.00025% papaverine in vehicle): 4470 ng·h/mL
integrated value of ibuprofen concentration in the blood (0-3 hr) ([2]; 0.00050% papaverine in vehicle): 8370 ng·h/mL
integrated value of ibuprofen concentration in the blood (0-3 hr) ([2]; 0.0010% papaverine in vehicle): 7620 ng·h/mL
integrated value of ibuprofen concentration in the blood (0-3 hr) ([2]; 0.0100% papaverine in vehicle): 5720 ng·h/mL
integrated value of ibuprofen concentration in the blood (0-3 hr) ([2]; 0.100% papaverine in vehicle): 4230 ng·h/mL
integrated value of ibuprofen concentration in the blood (0-3 hr) ([2]; 1.000% papaverine in vehicle): 6160 ng·h/mL
integrated value of ibuprofen concentration in the blood (0-3 hr) ([2]; Control (no papaverine), 150 mg sodium salt-ibuprofen in vehicle): 1030 ng·h/mL
integrated value of ibuprofen concentration in the blood (0-3 hr) ([3]; 0.0010% tolazoline in vehicle): 3900 ng·h/mL
integrated value of ibuprofen concentration in the blood (0-3 hr) ([3]; 0.0050% tolazoline in vehicle): 5240 ng·h/mL
integrated value of ibuprofen concentration in the blood (0-3 hr) ([3]; 0.0100% tolazoline in vehicle): 5660 ng·h/mL
integrated value of ibuprofen concentration in the blood (0-3 hr) ([3]; 0.0500% tolazoline in vehicle): 3530 ng·h/mL
integrated value of ibuprofen concentration in the blood (0-3 hr) ([3]; 0.100% tolazoline in vehicle): 4530 ng·h/mL
integrated value of ibuprofen concentration in the blood (0-3 hr) ([3]; Control (no tolazoline), 150 mg sodium salt-ibuprofen in vehicle): 1030 ng·h/mL
SMILES: CC(C)Cc1ccc(C(C)C(=O)O)cc1 (centres unmarked) [Ibuprofen, ibuprofen]

SMILES: c1ccc(CC2=NCCN2)cc1 [tolazoline]
concentration at which the maximum blood flow was achieved (blood flow): 0.5%
